Measured values taken from PubChem BioAssay AID330 (DTP/NCI, 2004).
“And” between values parts separate entries of the source, which are not always exact repeats. Identical values can stand only once. Inconclusive results and toxic doses are left out. The calls were made as follows: active = survival T/C of 150% or more; inactive = T/C below 125% in these data.

Test system: P388 leukemia ip, CD2F1 mice, survival T/C
Experiment: NCI In Vivo Anticancer Drug Screen. Data for tumor model P388 Leukemia (intraperitoneal) in CD2F1 (CDF1) mice
Details: endpoint: median survival time, higher = longer survival
Outline: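 Mice carrying the transplanted tumor received test compound or vehicle. Survival was recorded in each group, and the value is the treated-group measurement divided by that of the vehicle-treated control group.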

[1] = dose: 50.0 mg/kg/injection, schedule: Q01DX009 (ip), vehicle: saline
[2] = dose: 100.0 mg/kg/injection, schedule: Q01DX009 (ip), vehicle: saline
[3] = dose: 100.0 mg/kg/injection, schedule: Q04DX002 (ip), vehicle: saline
[4] = dose: 200.0 mg/kg/injection, schedule: Q01DX009 (ip), vehicle: saline
[5] = dose: 200.0 mg/kg/injection, schedule: Q04DX002 (ip), vehicle: saline
[6] = dose: 400.0 mg/kg/injection, schedule: Q01DX009 (ip), vehicle: saline
[7] = dose: 60.0 mg/kg/injection, schedule: Q01DX005 (ip), vehicle: Klucel (hydroxypropylcellulose) (HPC)
[8] = dose: 120.0 mg/kg/injection, schedule: Q01DX005 (ip), vehicle: Klucel (hydroxypropylcellulose) (HPC)
[9] = dose: 240.0 mg/kg/injection, schedule: Q01DX005 (ip), vehicle: Klucel (hydroxypropylcellulose) (HPC)
[10] = dose: 100.0 mg/kg/injection, schedule: Q01DX001 (ip), vehicle: saline with Tween-80
[11] = dose: 200.0 mg/kg/injection, schedule: Q01DX001 (ip), vehicle: saline with Tween-80
[12] = dose: 400.0 mg/kg/injection, schedule: Q01DX001 (ip), vehicle: saline with Tween-80
[13] = dose: 60.0 mg/kg/injection, schedule: Q01DX005 (ip), vehicle: saline with Tween-80
[14] = dose: 120.0 mg/kg/injection, schedule: Q01DX005 (ip), vehicle: saline with Tween-80
[15] = dose: 240.0 mg/kg/injection, schedule: Q01DX005 (ip), vehicle: saline with Tween-80
[16] = dose: 100.0 mg/kg/injection, schedule: Q01DX001 (ip), vehicle: Klucel (hydroxypropylcellulose) (HPC)
[17] = dose: 200.0 mg/kg/injection, schedule: Q01DX001 (ip), vehicle: Klucel (hydroxypropylcellulose) (HPC)
[18] = dose: 400.0 mg/kg/injection, schedule: Q01DX001 (ip), vehicle: Klucel (hydroxypropylcellulose) (HPC)
[19] = dose: 50.0 mg/kg/injection, schedule: Q01DX005 (ip), vehicle: Klucel (hydroxypropylcellulose) (HPC)
[20] = dose: 100.0 mg/kg/injection, schedule: Q01DX005 (ip), vehicle: Klucel (hydroxypropylcellulose) (HPC)
[21] = dose: 200.0 mg/kg/injection, schedule: Q01DX005 (ip), vehicle: Klucel (hydroxypropylcellulose) (HPC)

Measured: T/C

CCNc1nc(N)nc(N)n1
inactive: [1] 102 % of control and 103 % of control and 104 % of control | dose: 50.0 mg/kg/injection, schedule: Q04DX002 (ip), vehicle: saline 107 % of control | [2] 100 % of control and 102 % of control and 112 % of control | [3] 98 % of control | [4] 100 % of control and 110 % of control and 120 % of control | [5] 98 % of control | [6] 102 % of control and 110 % of control

CCCC(=O)Nc1cc([N+](=O)[O-])c([N+](=O)[O-])cc1OC
inactive: [7] 94 % of control | [8] 91 % of control | [9] 94 % of control

CCCCCC(CN(C)C)C(=O)/C=C/c1ccc(OC)cc1 (stereo not drawn)
inactive: dose: 50.0 mg/kg/injection, schedule: Q01DX005 (ip), vehicle: saline 101 % of control | dose: 100.0 mg/kg/injection, schedule: Q01DX005 (ip), vehicle: saline 104 % of control | dose: 200.0 mg/kg/injection, schedule: Q01DX005 (ip), vehicle: saline 96 % of control

Cc1oc2c(c(=O)c1C)CN(Cc1ccccc1)CC2
inactive: [10] 100 % of control | [11] 100 % of control | [12] 99 % of control

O=S(=O)(Nc1cccc(F)c1)c1ccc(F)cc1
inactive: [13] 103 % of control | [14] 99 % of control | [15] 93 % of control

OC1CC2CCCCC2CC1c1ccccc1 (stereo not drawn)
inactive: dose: 50.0 mg/kg/injection, schedule: Q04DX002 (ip), vehicle: saline with Tween-80 100 % of control and 92 % of control | dose: 100.0 mg/kg/injection, schedule: Q04DX002 (ip), vehicle: saline with Tween-80 111 % of control and 92 % of control | dose: 200.0 mg/kg/injection, schedule: Q04DX002 (ip), vehicle: saline with Tween-80 92 % of control and 97 % of control | dose: 400.0 mg/kg/injection, schedule: Q04DX002 (ip), vehicle: saline with Tween-80 116 % of control

OCC(O)C(O)C(O)C(O)CO (stereo not drawn)
inactive: [6] 107 % of control | dose: 1200.0 mg/kg/injection, schedule: Q01DX009 (ip), vehicle: saline 110 % of control | dose: 1600.0 mg/kg/injection, schedule: Q01DX005 (ip), vehicle: saline 106 % of control | dose: 2400.0 mg/kg/injection, schedule: Q01DX005 (ip), vehicle: saline 104 % of control

CC(=O)OCc1c(-c2ccccc2)nc2sccn12
inactive: [16] 98 % of control | [17] 100 % of control

O=C(/C=C\c1ccccc1)c1ccccc1
inactive: [3] 112 % of control | [5] 110 % of control | dose: 400.0 mg/kg/injection, schedule: Q04DX002 (ip), vehicle: saline 102 % of control

COc1cc2c(cc1NC(C)=O)C(=O)CCCC2
inactive: dose: 100.0 mg/kg/injection, schedule: Q01DX009 (ip), vehicle: saline + alcohol 107 % of control | dose: 200.0 mg/kg/injection, schedule: Q01DX009 (ip), vehicle: saline + alcohol 103 % of control | dose: 400.0 mg/kg/injection, schedule: Q01DX009 (ip), vehicle: saline + alcohol 110 % of control

O=C(CN1CCOCC1)Nc1nc(-c2ccc(Cl)cc2)cs1
inactive: dose: 25.0 mg/kg/injection, schedule: Q01DX005 (ip), vehicle: DMSO 98 % of control | dose: 50.0 mg/kg/injection, schedule: Q01DX005 (ip), vehicle: DMSO 100 % of control | dose: 100.0 mg/kg/injection, schedule: Q01DX005 (ip), vehicle: DMSO 99 % of control | dose: 200.0 mg/kg/injection, schedule: Q01DX005 (ip), vehicle: DMSO 95 % of control | dose: 400.0 mg/kg/injection, schedule: Q01DX005 (ip), vehicle: DMSO 98 % of control

COc1ccc(-c2nc(C)[nH]c(=O)c2Cc2c(O)ccc3ccccc23)cc1
inactive: [1] 102 % of control | [2] 100 % of control | [4] 99 % of control

CC(O)(c1ccc(Br)cc1)C1CC1 (stereo not drawn)
inactive: [16] 103 % of control | [17] 91 % of control | [18] 96 % of control

C=C1C(C2=[N+]([O-])CCN2O)OC2OC(C)(C)OC12 (stereo not drawn)
inactive: [7] 93 % of control | [8] 101 % of control | [9] 101 % of control

CCOC(=O)Nc1nc2ccccc2n1CN1CCCCC1
inactive: dose: 25.0 mg/kg/injection, schedule: Q01DX005 (ip), vehicle: Klucel (hydroxypropylcellulose) (HPC) 97 % of control | [19] 100 % of control | [20] 106 % of control | [21] 115 % of control

CSCCC(C(=O)O)N1C(=O)C=CC1=O (stereo not drawn)
inactive: dose: 11.25 mg/kg/injection, schedule: Q01DX009 (ip), vehicle: saline with Tween-80 97 % of control | dose: 22.5 mg/kg/injection, schedule: Q01DX009 (ip), vehicle: saline with Tween-80 97 % of control | dose: 45.0 mg/kg/injection, schedule: Q01DX009 (ip), vehicle: saline with Tween-80 100 % of control and 88 % of control

[CH3][Ge]([c]1ccccc1)[c]1cccc2ccccc12.[CH3][Sn]([CH3])[c]1ccccc1
inactive: dose: 100.0 mg/kg/injection, schedule: Q04DX003 (ip), vehicle: saline 100 % of control | dose: 200.0 mg/kg/injection, schedule: Q04DX003 (ip), vehicle: saline 100 % of control | dose: 400.0 mg/kg/injection, schedule: Q04DX003 (ip), vehicle: saline 101 % of control

O=C1C2CCCN2C(=S)N1c1ccc([N+](=O)[O-])cc1 (stereo not drawn)
inactive: [19] 100 % of control | [20] 100 % of control | [21] 99 % of control

CCOC(=O)c1c(Br)c2c3ccccc3c3ccccc3n2c1C
inactive: [13] 100 % of control | [14] 111 % of control | [15] 100 % of control

N#C/C(=C\c1cccs1)C(N)=S
inactive: [1] 100 % of control | [2] 102 % of control | [4] 100 % of control

CCOc1nc(N)nc(C)c1N=Nc1cccc([N+](=O)[O-])c1
inactive: [7] 100 % of control | [8] 94 % of control | [9] 103 % of control

FC(F)(F)c1ccc(C(Nc2nncs2)Nc2nncs2)cc1
inactive: dose: 50.0 mg/kg/injection, schedule: Q01DX005 (ip), vehicle: saline with Tween-80 93 % of control | dose: 100.0 mg/kg/injection, schedule: Q01DX005 (ip), vehicle: saline with Tween-80 96 % of control | dose: 200.0 mg/kg/injection, schedule: Q01DX005 (ip), vehicle: saline with Tween-80 105 % of control

Cn1c2cc([N+](=O)[O-])ccc2c(=O)c2c(O)cc(O)cc21
inactive: [10] 101 % of control | [11] 92 % of control | [12] 104 % of control

Cc1ccc(OP(=O)(Oc2ccc(C)cc2)Oc2ccc(C)cc2)cc1.Cc1ccc(OP(=O)(Oc2ccc(C)cc2)Oc2ccc(C)cc2)cc1.[Cl][Cr]([Cl])[Cl]
inactive: [16] 100 % of control | [17] 95 % of control | [18] 99 % of control

O=C(O)CCO/N=C1/Oc2ccc(Cl)cc2C1=O
inactive: [13] 103 % of control | [14] 102 % of control | [15] 101 % of control
